# Data published in ChEMBL document CHEMBL1147043, “Comparative metabolism of radiolabeled muraglitazar in animals and humans by quantitative and qualitative metabolite profiling” (Drug Metab Dispos, 2007).
# Columns and labels:
# [1] = Metabolic stability in cynomolgus monkey hepatocytes assessed as 12-hydroxy-O-demethyl muraglitazar level by LC/MS analysis relative to control; assay type: ADME, cell-based, Macaca fascicularis, Hepatocyte
# Rattus norvegicus [2] = assay: Biodistribution in orally dosed Sprague-Dawley rat urine assessed as 8,12-dihydroxy muraglitazar level by LC/MS analysis; assay type: ADME, organism-based; details: in vivo, po
# [3] = Drug concentration in bile duct-cannulated CD1 mouse urine assessed as recovery of radioactive dose at 40 mg/kg, po after 24 hrs; assay type: ADME, organism-based; parameters: dose 40 mg/kg, route oral; details: in vivo
# [4] = Metabolic stability in cynomolgus monkey hepatocytes assessed as muraglitazar glucuronide level by LC/MS analysis relative to control; assay type: ADME, cell-based, Macaca fascicularis, Hepatocyte
# Rattus norvegicus [5] = assay: Biodistribution in orally dosed Sprague-Dawley rat feces assessed as 17-hydroxy muraglitazar level by LC/MS analysis; assay type: ADME, organism-based; details: in vivo, po, pooled result: one value given for 6 cell lines, strains, targets or settings
# Hepatocyte [6] = assay: Metabolic stability in Sprague-Dawley rat hepatocytes assessed as muraglitazar 12-carboxylic acid level by LC/MS analysis relative to control; assay type: ADME, cell-based
# [7] = Drug concentration in human feces assessed as recovery of radioactive dose at 10 mg, po after 240 hrs; assay type: ADME, organism-based; details: in vivo
# Plasma [8] = assay: Biodistribution in orally dosed cynomolgus monkey plasma assessed as muraglitazar glucuronide level after 4 hrs by LC/MS analysis; assay type: ADME, organism-based, Macaca fascicularis; details: in vivo, po
# Rattus norvegicus [9] = assay: Biodistribution in orally dosed Sprague-Dawley rat urine assessed as O-demethyl muraglitazar glucuronide level by LC/MS analysis; assay type: ADME, organism-based; details: in vivo, po
# Rattus norvegicus [10] = assay: Biodistribution in orally dosed Sprague-Dawley rat feces assessed as O-dealkyl muraglitazar level by LC/MS analysis; assay type: ADME, organism-based; details: in vivo, po
# [11] = Drug concentration in bile duct-cannulated cynomolgus monkey feces assessed as recovery of radioactive dose at 5 mg/kg, po after 48 hrs; assay type: ADME, organism-based, Macaca fascicularis; parameters: dose 5 mg/kg, route oral; details: in vivo
# Hepatocyte [12] = assay: Metabolic stability in human hepatocytes assessed as 12-hydroxy-O-demethyl muraglitazar level by LC/MS analysis relative to control; assay type: ADME, cell-based
# Plasma [13] = assay: Biodistribution in orally dosed human plasma assessed as 12-dihydroxy muraglitazar level after 12 hrs by LC/MS analysis; assay type: ADME, organism-based; details: in vivo, po
# [14] = Drug concentration in Sprague-Dawley rat urine assessed as recovery of radioactive dose at 11 mg/kg, po after 168 hrs; assay type: ADME, organism-based; parameters: dose 11 mg/kg, route oral; details: in vivo
# Plasma [15] = assay: Biodistribution in orally dosed human plasma assessed as muraglitazar glucuronide level after 4 hrs by LC/MS analysis; assay type: ADME, organism-based; details: in vivo, po
# [16] = Metabolic stability in cynomolgus monkey hepatocytes assessed as 8-hydroxy-O-demethyl muraglitazar level by LC/MS analysis relative to control; assay type: ADME, cell-based, Macaca fascicularis, Hepatocyte
# [17] = Metabolic stability in cynomolgus monkey hepatocytes assessed as 9-hydroxy muraglitazar level by LC/MS analysis relative to control; assay type: ADME, cell-based, Macaca fascicularis, Hepatocyte
# Hepatocyte [18] = assay: Metabolic stability in Sprague-Dawley rat hepatocytes assessed as 12-hydroxy muraglitazar level by LC/MS analysis relative to control; assay type: ADME, cell-based
# [19] = Biodistribution in orally dosed human feces assessed as 9-hydroxy-O-demethyl muraglitazar level by LC/MS analysis; assay type: ADME, organism-based; details: in vivo, po
# [20] = Drug concentration in Beagle dog urine at 2 mg/kg, po after 24 hrs; assay type: ADME, organism-based, Canis lupus familiaris; parameters: dose 2 mg/kg, route oral; details: read-out: Drug uptake
# [21] = Fecal excretion of compound in bile duct-cannulated orally dosed Sprague-Dawley rat within 24 hrs; assay type: ADME, organism-based; details: faeces, po, read-out: Activity
# Plasma [22] = assay: Biodistribution in orally dosed Beagle dog plasma assessed as 12-hydroxy-O-demethyl muraglitazar level after 4 hrs by LC/MS analysis; assay type: ADME, organism-based, Canis lupus familiaris; details: in vivo, po
# Cynomolgus monkey = assay: AUC (0 to T) in cynomolgus monkey at 1.9 mg/kg, po after 24 hrs; assay type: ADME, organism-based, Macaca fascicularis, Plasma; parameters: time < 24 hr, dose 1.9 mg/kg, route oral; details: in vivo
# Plasma [23] = assay: Biodistribution in orally dosed human plasma assessed as 12-hydroxy-O-demethyl muraglitazar level after 12 hrs by LC/MS analysis; assay type: ADME, organism-based; details: in vivo, po
# Plasma [24] = assay: Biodistribution in orally dosed Sprague-Dawley rat plasma assessed as muraglitazar 12-carboxylic acid level after 12 hrs by LC/MS analysis; assay type: ADME, organism-based; details: in vivo, po
# [25] = Biodistribution in orally dosed cynomolgus monkey feces assessed as 8,12-dihydroxy muraglitazar level by LC/MS analysis; assay type: ADME, organism-based, Macaca fascicularis; details: in vivo, po
# [26] = Metabolic stability in CD1 mouse hepatocytes assessed as 8-hydroxy-O-demethyl muraglitazar level by LC/MS analysis relative to control; assay type: ADME, cell-based, Hepatocyte
# [27] = Drug concentration in bile duct-cannulated CD1 mouse feces assessed as recovery of radioactive dose at 40 mg/kg, po after 24 hrs; assay type: ADME, organism-based; parameters: dose 40 mg/kg, route oral; details: in vivo
# [28] = Biodistribution in orally dosed cynomolgus monkey feces assessed as imide derivative of muraglitazar level by LC/MS analysis; assay type: ADME, organism-based, Macaca fascicularis; details: in vivo, po
# Plasma [29] = assay: Biodistribution in orally dosed cynomolgus monkey plasma assessed as 12-hydroxy-O-demethyl muraglitazar level after 4 hrs by LC/MS analysis; assay type: ADME, organism-based, Macaca fascicularis; details: in vivo, po
# [30] = Metabolic stability in cynomolgus monkey hepatocytes assessed as 12,17-dihydroxy muraglitazar level by LC/MS analysis relative to control; assay type: ADME, cell-based, Macaca fascicularis, Hepatocyte
# [31] = Tmax in human at 10 mg, po after 72 hrs; assay type: ADME, organism-based; details: in vivo
# [32] = Metabolic stability in cynomolgus monkey hepatocytes assessed as 17-hydroxy muraglitazar level by LC/MS analysis relative to control; assay type: ADME, cell-based, Macaca fascicularis, Hepatocyte
# [33] = Metabolic stability in cynomolgus monkey hepatocytes assessed as O-demethyl muraglitazar glucuronide level by LC/MS analysis relative to control; assay type: ADME, cell-based, Macaca fascicularis, Hepatocyte
# [34] = Biodistribution in orally dosed human feces assessed as O-dealkyl-O-demethyl muraglitazar level by LC/MS analysis; assay type: ADME, organism-based; details: in vivo, po
# Plasma [35] = assay: Biodistribution in orally dosed Beagle dog plasma assessed as O-demethyl muraglitazar glucuronide level after 4 hrs by LC/MS analysis; assay type: ADME, organism-based, Canis lupus familiaris; details: in vivo, po
# Hepatocyte [36] = assay: Metabolic stability in Sprague-Dawley rat hepatocytes assessed as hydroxyl muraglitazar glucuronide level by LC/MS analysis relative to control; assay type: ADME, cell-based
# Rattus norvegicus [37] = assay: Biodistribution in orally dosed Sprague-Dawley rat urine assessed as 8-hydroxy-O-demethyl muraglitazar level by LC/MS analysis; assay type: ADME, organism-based; details: in vivo, po
# Plasma [38] = assay: Biodistribution in orally dosed Sprague-Dawley rat plasma assessed as O-Dealkyl muraglitazar level after 12 hrs by LC/MS analysis; assay type: ADME, organism-based; details: in vivo, po
# Hepatocyte [39] = assay: Metabolic stability in Sprague-Dawley rat hepatocytes assessed as O-Dealkyl muraglitazar level by LC/MS analysis relative to control; assay type: ADME, cell-based
# [40] = Drug concentration in bile duct-cannulated CD1 mouse bile at 40 mg/kg, po after 24 hrs; assay type: ADME, organism-based; parameters: dose 40 mg/kg, route oral; details: read-out: Drug uptake
# Plasma [41] = assay: Biodistribution in orally dosed cynomolgus monkey plasma assessed as 17-dihydroxy muraglitazar level after 1 hr by LC/MS analysis; assay type: ADME, organism-based, Macaca fascicularis; details: in vivo, po
# [42] = Metabolic stability in cynomolgus monkey hepatocytes assessed as 17-hydroxy-O-demethyl muraglitazar level by LC/MS analysis relative to control; assay type: ADME, cell-based, Macaca fascicularis, Hepatocyte
# [43] = Biodistribution in orally dosed Beagle dog feces assessed as muraglitazar 12-carboxylic acid level by LC/MS analysis; assay type: ADME, organism-based, Canis lupus familiaris; details: in vivo, po
# [44] = Drug concentration in bile duct-cannulated CD1 mouse feces assessed as recovery of radioactive dose at 1 mg/kg, po after 24 hrs; assay type: ADME, organism-based; parameters: dose 1 mg/kg, route oral; details: in vivo
# [45] = Metabolic stability in CD1 mouse hepatocytes assessed as 17-hydroxy muraglitazar level by LC/MS analysis relative to control; assay type: ADME, cell-based, Hepatocyte
# [46] = Metabolic stability in cynomolgus monkey hepatocytes assessed as 12-hydroxy muraglitazar level by LC/MS analysis relative to control; assay type: ADME, cell-based, Macaca fascicularis, Hepatocyte
# Hepatocyte [47] = assay: Metabolic stability in human hepatocytes assessed as 12-hydroxy muraglitazar level by LC/MS analysis relative to control; assay type: ADME, cell-based
# [48] = Metabolic stability in cynomolgus monkey hepatocytes assessed as O-Dealkyl muraglitazar level by LC/MS analysis relative to control; assay type: ADME, cell-based, Macaca fascicularis, Hepatocyte
# [49] = Biodistribution in orally dosed Beagle dog feces assessed as 9,12-dihydroxy muraglitazar level by LC/MS analysis; assay type: ADME, organism-based, Canis lupus familiaris; details: in vivo, po
smiles,measurement,setting,value
COc1ccc(OC(=O)N(CC(=O)O)Cc2ccc(OCCc3nc(-c4ccccc4)oc3C)cc2)cc1 [MURAGLITAZAR],Drug uptake,[1],< 0.2%
same,Drug uptake,Rattus norvegicus [2],< 0.01%
same,Drug uptake,[3],16.1%
same,Drug uptake,[4],1.7%
same,Drug uptake,Rattus norvegicus [5],0.88%
same,Drug uptake,Hepatocyte [6],< 0.2%
same,Drug uptake,[7],61.6%
same,Drug uptake,Plasma [8],0.2%
same,Drug uptake,Rattus norvegicus [9],< 0.01%
same,Drug uptake,Rattus norvegicus [10],1.75%
same,Drug uptake,[11],15%
same,Drug uptake,Hepatocyte [12],< 0.2%
same,Drug uptake,Plasma [13],1%
same,Drug uptake,[14],1%
same,Drug uptake,Plasma [15],4.2%
same,Drug uptake,[16],< 0.2%
same,Drug uptake,[17],0.6%
same,Drug uptake,Hepatocyte [18],1.3%
same,Drug uptake,[19],2.21%
same,dose excreted at 24 h,[20],0.49%
same,dose excreted at 24 h,[21],< 1%
same,Drug uptake,Plasma [22],1%
same,AUC,Cynomolgus monkey,71 ugequiv.h/ml
same,Drug uptake,Plasma [23],1%
same,Drug uptake,Plasma [24],< 0.05%
same,Drug uptake,[25],0.16%
same,Drug uptake,[26],4.8%
same,Drug uptake,[27],12%
same,Drug uptake,[28],0.56%
same,Drug uptake,Plasma [29],2.9%
same,Drug uptake,[30],< 0.2%
same,Tmax,[31],1 h
same,Drug uptake,[32],7.9%
same,Drug uptake,[33],< 0.2%
same,Drug uptake,[34],0.4%
same,Drug uptake,Plasma [35],3%
same,Drug uptake,Hepatocyte [36],0.5%
same,Drug uptake,Rattus norvegicus [37],0.05%
same,Drug uptake,Plasma [38],0.05%
same,Drug uptake,Hepatocyte [39],12%
same,dose excreted at 24 h,[40],13.2%
same,Drug uptake,Plasma [41],8%
same,Drug uptake,[42],11%
same,Drug uptake,[43],0.1%
same,Drug uptake,[44],8.2%
same,Drug uptake,[45],5.4%
same,Drug uptake,[46],0.8%
same,Drug uptake,Hepatocyte [47],1.9%
same,Drug uptake,[48],7.6%
same,Drug uptake,[49],0.34%
